From US5723616A, “Process for the preparation of a growth hormone secretagogue” (priority 1996, dated 1998)
Converted amounts (≈) assume the structure as drawn. Like-named read-outs stand apart in the source and are kept apart here.

Tests used:
[1] = hygroscopicity observed at filtration of the wet crystals; format: physicochemical; details: wet crystals during filtration (N2 essential)
Description: The volume of the solution of 15 from the previous step was adjusted to 60 L with ethyl acetate and EtOH (4.8 L) was added. The MsOH (316 mL) was added in 3 L of EtOAc at 45° C. To the deep red homogeneous solution was added 496 g of the title compound Form I seed (10% seed based on the weight of the free amine was employed). The temperature rose to ca. 48° C. and the reaction was aged at 52° C. for 1.5 hours. Analysis indicated complete conversion to the title compound (Form I). (At less than 10% seed longer age (>3 hours) was required). The slurry was allowed to cool to 20° C. overnight and was filtered in a centrifuge under N2. The cake was washed with 20 L of 8% EtOH in EtOAc. […] The batch was dried at 35° C. under vacuum to afford 2.7 Kg (56% overall yield) of the title compound (Form I) (99.9 A % purity; <0.1% enantiomer).

[2] = solubility of the sulfonamide in various mixtures of toluene and n-PrOH, determined by HPLC assay; format: physicochemical; details: organic solvent or mixture, read-out: solubility of 1
Description: The temperature of both the head and pot rose from 94° C. to 98° C. during the solvent switch. Toluene and n-PrOH form an azeotrope boiling at 97.2° C. composed of 47.5% toluene and 52.5% n-PrOH. The mixture was allowed to cool gradually to 20° C. over 3h and aged for 12 h. […] The solubility of the sulfonamide in various mixtures of toluene and n-PrOH has been determined by HPLC assay: […]

SMILES | hygroscopicity of the wet crystals [1] | solubility ([2]; 5% toluene in n-proh) [µg/mL] | solubility ([2]; 10% toluene in n-proh) [µg/mL] | solubility ([2]; 20% toluene in n-proh) [µg/mL] | solubility ([2]; 25% toluene in n-proh) [µg/mL] | solubility ([2]; 0% toluene in n-PrOH) [µg/mL]
CC(C)(N)C(=O)N[C@H](COCc1ccccc1)C(=O)N1CCC2(CC1)CN(S(C)(=O)=O)c1ccccc12 [Form I, N-[1(R)-[(1,2-dihydro-1-methanesulfonyl-spiro[3H-indole-3,4'-piperdin]-1'-yl)carbonyl]-2-(phenylmethyl-oxy)ethyl]-2-amino-2-methylpropanamide methanesulfonate] | very hygroscopic | – | – | – | – | –
CS(=O)(=O)N1CC2(CCN(C(=O)OCc3ccccc3)CC2)c2ccccc21 [Compound 1, CBZ-Spiroindoline-methanesulfonamide] | – | 3020 (≈ 7.54 mM) | 4230 (≈ 10.6 mM) | 7510 (≈ 18.8 mM) | 10300 (≈ 25.7 mM) | 2360 (≈ 5.89 mM)
